Results reported in ChEMBL document CHEMBL1955738, “Synthesis and antitumor activity of 5,6-dihydro-17-hydroxy icogenin analogs” (Eur J Med Chem, 2012).

Key:
Type in all cases: functional, cell-based
[1] = test system: Bel-7402; experiment: Cytotoxicity against human Bel7402 cells by MTT assay
[2] = test system: A549; experiment: Cytotoxicity against human A549 cells by MTT assay
[3] = test system: HeLa; experiment: Cytotoxicity against human HeLa cells by MTT assay
[4] = test system: BGC-823; experiment: Cytotoxicity against human BGC823 cells by MTT assay
[5] = test system: KB; experiment: Cytotoxicity against human KB cells by MTT assay
[6] = test system: HCT-8; experiment: Cytotoxicity against human HCT8 cells by MTT assay
[7] = test system: A2780; experiment: Cytotoxicity against human A2780 cells by MTT assay
[8] = test system: HL-60; experiment: Cytotoxicity against human HL60 cells

SMILES: CO[C@]1(CC[C@@H](C)CO)O[C@H]2C[C@H]3[C@@H]4CCC5C[C@@H](O)CC[C@]5(C)[C@H]4CC[C@]3(C)[C@@]2(O)[C@@H]1C (some centres not stated)
- IC50 [1]: > 10 µM
- IC50 [2]: > 10 µM
- IC50 [3]: > 10 µM
- IC50 [4]: > 10 µM
- IC50 [5]: > 10 µM
- IC50 [6]: > 10 µM
- IC50 [7]: > 10 µM

SMILES: CO[C@]1(CC[C@@H](C)CO)O[C@H]2C[C@H]3[C@@H]4CCC5C[C@@H](O[C@@H]6O[C@H](CO)[C@@H](O)[C@H](O)[C@H]6O)CC[C@]5(C)[C@H]4CC[C@]3(C)[C@@]2(O)[C@@H]1C (some centres not stated)
- IC50 [1]: > 10 µM
- IC50 [2]: > 10 µM
- IC50 [3]: > 10 µM
- IC50 [4]: > 10 µM
- IC50 [5]: > 10 µM
- IC50 [6]: > 10 µM
- IC50 [7]: > 10 µM

SMILES: CO[C@]1(CC[C@@H](C)CO)O[C@H]2C[C@H]3[C@@H]4CCC5C[C@@H](O[C@H]6O[C@H](CO)[C@@H](O)[C@H](O)[C@H]6O[C@@H]6O[C@@H](C)[C@H](O)[C@@H](O)[C@H]6O)CC[C@]5(C)[C@H]4CC[C@]3(C)[C@@]2(O)[C@@H]1C (some centres not stated)
- IC50 [1]: 8.3 µM
- IC50 [2]: 3.68 µM
- IC50 [3]: 7.8 µM
- IC50 [4]: 4.29 µM
- IC50 [5]: 5.97 µM
- IC50 [6]: 3.38 µM
- IC50 [7]: 7.96 µM

SMILES: CO[C@]1(CC[C@@H](C)CO)O[C@H]2C[C@H]3[C@@H]4CCC5C[C@@H](O[C@H]6O[C@H](CO)[C@@H](O[C@@H]7O[C@H](CO)[C@@H](O)[C@H](O)[C@H]7O)[C@H](O)[C@H]6O[C@@H]6O[C@@H](C)[C@H](O)[C@@H](O)[C@H]6O)CC[C@]5(C)[C@H]4CC[C@]3(C)[C@@]2(O)[C@@H]1C (some centres not stated)
- IC50 [1]: 9.69 µM
- IC50 [2]: 1.9 µM
- IC50 [3]: 8.31 µM
- IC50 [4]: 7.97 µM
- IC50 [5]: 5.24 µM
- IC50 [6]: 6.05 µM
- IC50 [7]: 8.21 µM

SMILES: C[C@@H]1CC[C@@]2(OC1)O[C@H]1C[C@H]3[C@@H]4CC=C5C[C@@H](O[C@@H]6O[C@H](CO)[C@@H](O[C@@H]7O[C@@H](C)[C@H](O)[C@@H](O)[C@H]7O)[C@H](O)[C@H]6O[C@@H]6O[C@@H](C)[C@H](O)[C@@H](O)[C@H]6O)CC[C@]5(C)[C@H]4CC[C@]3(C)[C@H]1[C@@H]2C [DIOSCIN]
- IC50 [1]: 0.81 µM
- IC50 [2]: 0.81 µM
- IC50 [3]: 0.5 µM
- IC50 [4]: 1.08 µM
- IC50 [5]: 0.53 µM
- IC50 [6]: 0.34 µM
- IC50 [7]: 0.87 µM

SMILES: CO[C@]1(CC[C@H](C)CO)O[C@H]2C[C@H]3[C@@H]4CC=C5C[C@@H](O[C@@H]6O[C@H](CO)[C@@H](O)[C@H](O[C@@H]7O[C@H](CO)[C@@H](O)[C@H](O)[C@H]7O)[C@H]6O[C@@H]6O[C@@H](C)[C@H](O)[C@@H](O)[C@H]6O)CC[C@]5(C)[C@H]4CC[C@]3(C)[C@H]2[C@@H]1C [ICOGENIN]
- IC50 [8]: 2.6 µM

SMILES: C[C@@H](CC[C@@]1(O)O[C@H]2C[C@H]3[C@@H]4CC[C@@H]5C[C@@H](O[C@@H]6O[C@H](CO)[C@H](O)[C@H](O)[C@H]6O[C@@H]6O[C@H](CO)[C@@H](O)[C@H](O)[C@H]6O)CC[C@]5(C)[C@H]4CC[C@]3(C)[C@H]2[C@@H]1C)CO[C@@H]1O[C@H](CO)[C@@H](O)[C@H](O)[C@H]1O [TIMOSAPONIN BII]
- IC50 [8]: 15.5 µg/mL
